# Reference: US12077503B2, “Substituted cyclic amides and their use as herbicides” (FMC CORPORATION, priority 2015, dated 2024)
# How the values were obtained:
# Format in all cases: in vivo
# [1] = system: sedge, umbrella (small-flower umbrella sedge, Cyperus difformis); assay: Test B flooded paddy test; details: Cyperus difformis, 250 g ai/ha, Flood; 0 to 100 scale where 0 is no effect and 100 is complete control; read-out: Sedge, Umbrella plant response rating
# How it was run: (§1)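 Visual ratings (0 none to 100 complete control) are relative to untreated plants, taken 13–15 d after treatment in a greenhouse. Test material went straight into floodwater standing 3 cm above the soil, kept constant, on plants at the 2-leaf stage.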
# [2] = system: barnyardgrass (Echinochloa crus-galli); assay: Test B flooded paddy test; details: Echinochloa crus-galli, 250 g ai/ha, Flood; 0 to 100 scale where 0 is no effect and 100 is complete control; read-out: Barnyardgrass plant response rating
# How it was run: as §1
# rice (Oryra sativa) = assay: Test B flooded paddy test; details: Oryza sativa, 250 g ai/ha, Flood; 0 to 100 scale where 0 is no effect and 100 is complete control; read-out: Rice plant response rating
# How it was run: as §1
# [3] = system: ducksalad (Heteranthera limosa); assay: Test B flooded paddy test; details: Heteranthera limosa, 250 g ai/ha, Flood; 0 to 100 scale where 0 is no effect and 100 is complete control; read-out: Ducksalad plant response rating
# How it was run: as §1
# [4] = system: ryegrass, Italian (Italian ryegrass, Lolium multiflorum); assay: Test A postemergence; details: Lolium multiflorum, post-emergence, 240 h
# How it was run: (§2)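 Treatment is preemergence as a directed soil spray after planting, or postemergence at the one- to two-leaf stage, with test chemical in a non-phytotoxic solvent mixture plus surfactant. Plants stay in the greenhouse about 10 d before visual injury scoring on a 0 to 100 scale versus untreated controls.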
# [5] = system: ragweed (common ragweed, Ambrosia elatior); assay: Test A postemergence; details: Ambrosia artemisiifolia, post-emergence, 240 h
# How it was run: as §2
# [6] = system: Galium (catchweed bedstraw, Galium aparine); assay: Test A postemergence; details: Galium, post-emergence, 240 h
# How it was run: as §2
# [7] = system: barnyardgrass (Echinochloa crus-galli); assay: Test A postemergence; details: Echinochloa crus-galli, post-emergence, 240 h
# How it was run: as §2
# [8] = system: giant foxtail (Setaria faberii); assay: Test A postemergence; details: Setaria faberi, post-emergence, 240 h
# How it was run: as §2
# [9] = system: blackgrass (Alopecurus myosuroides); assay: Test A postemergence; details: Alopecurus myosuroides, post-emergence, 240 h
# How it was run: as §2
# Kochia (Kochia scoparia) [10] = assay: Test A postemergence; details: Bassia scoparia, post-emergence, 240 h
# How it was run: as §2
# corn (Zea mays) = assay: Test A postemergence; details: Zea mays, post-emergence, 240 h
# How it was run: as §2
# [11] = system: pigweed (Amaranthus retroflexus); assay: Test A postemergence; details: Amaranthus retroflexus, post-emergence, 240 h
# How it was run: as §2
# [12] = system: wheat (Triticum aestivum); assay: Test A postemergence; details: Triticum aestivum, post-emergence, 240 h
# How it was run: as §2
# [13] = system: ryegrass, Italian (Italian ryegrass, Lolium multiflorum); assay: Test A preemergence; details: Lolium multiflorum, pre-emergence, 240 h, 0 to 100 scale where 0 is no effect and 100 is complete control, read-out: Ryegrass, Italian plant response rating
# How it was run: as §2
# [14] = system: ragweed (common ragweed, Ambrosia elatior); assay: Test A preemergence; details: Ambrosia artemisiifolia, pre-emergence, 240 h, 0 to 100 scale where 0 is no effect and 100 is complete control, read-out: Ragweed plant response rating
# How it was run: as §2
# [15] = system: barnyardgrass (Echinochloa crus-galli); assay: Test A preemergence; details: Echinochloa crus-galli, pre-emergence, 240 h, 0 to 100 scale where 0 is no effect and 100 is complete control, read-out: Barnyardgrass plant response rating
# How it was run: as §2
# [16] = system: giant foxtail (Setaria faberii); assay: Test A preemergence; details: Setaria faberi, pre-emergence, 240 h, 0 to 100 scale where 0 is no effect and 100 is complete control, read-out: Foxtail, Giant plant response rating
# How it was run: as §2
# Kochia (Kochia scoparia) [17] = assay: Test A preemergence; details: Bassia scoparia, pre-emergence, 240 h, 0 to 100 scale where 0 is no effect and 100 is complete control, read-out: Kochia plant response rating
# How it was run: as §2
# [18] = system: pigweed (Amaranthus retroflexus); assay: Test A preemergence; details: Amaranthus retroflexus, pre-emergence, 240 h, 0 to 100 scale where 0 is no effect and 100 is complete control, read-out: Pigweed plant response rating
# [19] = 125 g ai/ha, preemergence, approx. 10 d
smiles,measurement,setting,value
O=C1NC[C@H](c2csc3c2CCC3)[C@H]1C(=O)Nc1cccc(F)c1F [Compound 1164],pest or weed control at 250 g/ha,[1],0%
same,pest or weed control at 250 g/ha,[2],40%
same,pest or weed control at 250 g/ha,rice (Oryra sativa),0%
same,pest or weed control at 250 g/ha,[3],95%
same,pest or weed control at 125 g/ha,"[4]; 125 g ai/ha, postemergence, visual injury vs untreated controls after approx. 10 d, 0 = no effect, 100 = complete control, read-out: Ryegrass, Italian plant response rating (0 to 100 scale)",0%
same,pest or weed control at 31 g/ha,"[4]; Postemergence, 31 g ai/ha, visual injury after approx. 10 d, 0 to 100 scale, 0 no effect, 100 complete control, read-out: Plant response rating, Ryegrass, Italian",0%
same,pest or weed control at 125 g/ha,"[5]; 125 g ai/ha, postemergence, visual injury vs untreated controls after approx. 10 d, 0 = no effect, 100 = complete control, read-out: Ragweed plant response rating (0 to 100 scale)",0%
same,pest or weed control at 31 g/ha,"[5]; Postemergence, 31 g ai/ha, visual injury after approx. 10 d, 0 to 100 scale, 0 no effect, 100 complete control, read-out: Plant response rating, Ragweed",0%
same,pest or weed control at 125 g/ha,"[6]; 125 g ai/ha, postemergence, visual injury vs untreated controls after approx. 10 d, 0 = no effect, 100 = complete control, read-out: Galium plant response rating (0 to 100 scale)",30%
same,pest or weed control at 31 g/ha,"[6]; Postemergence, 31 g ai/ha, visual injury after approx. 10 d, 0 to 100 scale, 0 no effect, 100 complete control, read-out: Plant response rating, Galium",0%
same,pest or weed control at 125 g/ha,"[7]; 125 g ai/ha, postemergence, visual injury vs untreated controls after approx. 10 d, 0 = no effect, 100 = complete control, read-out: Barnyardgrass plant response rating (0 to 100 scale)",80%
same,pest or weed control at 31 g/ha,"[7]; Postemergence, 31 g ai/ha, visual injury after approx. 10 d, 0 to 100 scale, 0 no effect, 100 complete control, read-out: Plant response rating, Barnyardgrass",30%
same,pest or weed control at 125 g/ha,"[8]; 125 g ai/ha, postemergence, visual injury vs untreated controls after approx. 10 d, 0 = no effect, 100 = complete control, read-out: Foxtail, Giant plant response rating (0 to 100 scale)",0%
same,pest or weed control at 31 g/ha,"[8]; Postemergence, 31 g ai/ha, visual injury after approx. 10 d, 0 to 100 scale, 0 no effect, 100 complete control, read-out: Plant response rating, Foxtail, Giant",0%
same,pest or weed control at 125 g/ha,"[9]; 125 g ai/ha, postemergence, visual injury vs untreated controls after approx. 10 d, 0 = no effect, 100 = complete control, read-out: Blackgrass plant response rating (0 to 100 scale)",0%
same,pest or weed control at 31 g/ha,"[9]; Postemergence, 31 g ai/ha, visual injury after approx. 10 d, 0 to 100 scale, 0 no effect, 100 complete control, read-out: Plant response rating, Blackgrass",0%
same,pest or weed control at 125 g/ha,"Kochia (Kochia scoparia) [10]; 125 g ai/ha, postemergence, visual injury vs untreated controls after approx. 10 d, 0 = no effect, 100 = complete control, read-out: Kochia plant response rating (0 to 100 scale)",0%
same,pest or weed control at 31 g/ha,"Kochia (Kochia scoparia) [10]; Postemergence, 31 g ai/ha, visual injury after approx. 10 d, 0 to 100 scale, 0 no effect, 100 complete control, read-out: Plant response rating, Kochia",0%
same,plant injury at 125 g/ha,"corn (Zea mays); 125 g ai/ha, postemergence, visual injury vs untreated controls after approx. 10 d, 0 = no effect, 100 = complete control, read-out: Corn plant response rating (0 to 100 scale)",0%
same,"Corn plant response rating (crop injury, 0 = no effect, 100 = complete kill) at 31 g/ha","corn (Zea mays); Postemergence, 31 g ai/ha, visual injury after approx. 10 d, 0 to 100 scale, 0 no effect, 100 complete control",0%
same,pest or weed control at 125 g/ha,"[11]; 125 g ai/ha, postemergence, visual injury vs untreated controls after approx. 10 d, 0 = no effect, 100 = complete control, read-out: Pigweed plant response rating (0 to 100 scale)",0%
same,pest or weed control at 31 g/ha,"[11]; Postemergence, 31 g ai/ha, visual injury after approx. 10 d, 0 to 100 scale, 0 no effect, 100 complete control, read-out: Plant response rating, Pigweed",0%
same,plant injury at 125 g/ha,"[12]; 125 g ai/ha, postemergence, visual injury vs untreated controls after approx. 10 d, 0 = no effect, 100 = complete control, read-out: Wheat plant response rating (0 to 100 scale)",0%
same,plant injury at 31 g/ha,"[12]; Postemergence, 31 g ai/ha, visual injury after approx. 10 d, 0 to 100 scale, 0 no effect, 100 complete control, read-out: Plant response rating, Wheat",0%
same,pest or weed control at 31 g/ha,"[13]; 31 g ai/ha, Preemergence",0%
same,pest or weed control at 125 g/ha,[13]; [19],0%
same,pest or weed control at 31 g/ha,"[14]; 31 g ai/ha, Preemergence",0%
same,pest or weed control at 125 g/ha,[14]; [19],0%
same,pest or weed control at 31 g/ha,"[15]; 31 g ai/ha, Preemergence",60%
same,pest or weed control at 125 g/ha,[15]; [19],80%
same,pest or weed control at 31 g/ha,"[16]; 31 g ai/ha, Preemergence",30%
same,pest or weed control at 125 g/ha,[16]; [19],30%
same,pest or weed control at 31 g/ha,"Kochia (Kochia scoparia) [17]; 31 g ai/ha, Preemergence",0%
same,pest or weed control at 125 g/ha,Kochia (Kochia scoparia) [17]; [19],20%
same,pest or weed control at 31 g/ha,"[18]; 31 g ai/ha, Preemergence",0%
same,pest or weed control at 125 g/ha,[18]; [19],0%
